Reference: the supplement of paper PMC11208160

Assay: recombinant UMI read abundance after kanamycin selection (control-corrected) (log10(CPM+1)); higher = more efficient recombination; extreme values may be limits of the assay; sequences stand for … in AGTGCAGAGAAAATCGGCCAGTTTTCTCTGCCTGCAGTCCGCATGCCGTGGGACCCCTTGGGTTCTAACCTGTTGCCTAGATTTATGCAGCGGACTGCCTTTCTCCCAAAGTGATAAACCGG…AGGTTGGTTTCACT; site = the 11-nt donor
How it was run: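 In a pooled Escherichia coli screen for the IS621 bridge recombinase, donor and donor-binding-loop pairs were each placed with a 12-nt UMI on a plasmid bearing a promoterless kanamycin gene. This library was co-electroporated with a target plasmid encoding a fixed target and T7-inducible recombinase, and cells were plated either on IPTG (0.07 mM) plus kanamycin or without selection, in two replicates each. Recombinant UMIs were PCR-amplified across the donor–target junction and sequenced, and counts were converted to CPM, averaged over replicates, scaled by control-derived factors and reported as log10(CPM+1).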
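Note: IS621 bridge recombinase in Escherichia coli cells against a fixed T5 target plasmid.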

Sequence | recombinant UMI read abundance (log10)
TATAGTCCATGGACCGGTTTTCCCGGTAATCCGTATTTGTA (site TATAGTCCTTA) | 0.432
ATCCAAGCATGGACCGGTTTTCCCGGTAATCCGTATTTGAG (site GTCCAAGCTCT) | 0.00952
GGCTCAGCATGGACCGGTTTTCCCGGTAATCCGTATTTGGG (site CGCTCAGCTCC) | 0.0293
GGCTAGGCATGGACCGGTTTTCCCGGTAATCCGTATTTGGT (site CGCTAGGCTAC) | 0.399
TTAGCTGCATGGACCGGTTTTCCCGGTAATCCGTATTTGGG (site TTAGCTGCTCG) | 0.0143
CGTGGAACATGGACCGGTTTTCCCGGTAATCCGTATTTGTT (site CGTGGAACTAC) | 0.303
CTGGAAACATGGACCGGTTTTCCCGGTAATCCGTATTTGCA (site CTGGATACTTG) | 0.526
CGGGAACCATGGACCGGTTTTCCCGGTAATCCGTATTTGAT (site CGGGGACCTAT) | 0
ACGAAGACATGGACCGGTTTTCCCGGTAATCCGTATTTGTA (site AGGAAGACTTG) | 0
CACGTGGCATGGACCGGTTTTCCCGGTAATCCGTATTTGGA (site CACTTGGCTTC) | 0.235
CTGTCGCCATGGACCGGTTTTCCCGGTAATCCGTATTTGCG (site CTGTCGCCTCG) | 0.00856
ATCTATACATGGACCGGTTTTCCCGGTAATCCGTATTTGAC (site ATCTATACTGC) | 0
CAAGCAGCATGGACCGGTTTTCCCGGTAATCCGTATTTGCT (site CATGCAGCTAG) | 0.0527
ATTGAGACATGGACCGGTTTTCCCGGTAATCCGTATTTGGA (site ATTGAGACTCC) | 0.663
GAAAAACCATGGACCGGTTTTCCCGGTAATCCGTATTTGGT (site GAGAAACCTAC) | 0
TATTTGGCATGGACCGGTTTTCCCGGTAATCCGTATTTGGG (site TATTTGGCTCT) | 0.0188
GGTCGAGCATGGACCGGTTTTCCCGGTAATCCGTATTTGCA (site GTTCGAGCTTG) | 0.824
CCGTTATCATGGACCGGTTTTCCCGGTAATCCGTATTTGTG (site CCGTTAACTCA) | 0.0485
GTGGAGGCATGGACCGGTTTTCCCGGTAATCCGTATTTGTG (site GTGGTGGCTCA) | 0
CACGGCCCATGGACCGGTTTTCCCGGTAATCCGTATTTGTT (site TACGGCCCTAA) | 0.0279
CCGAATCCATGGACCGGTTTTCCCGGTAATCCGTATTTGCT (site CGGAATCCTAA) | 0
CGGAAGACATGGACCGGTTTTCCCGGTAATCCGTATTTGTG (site CGGAAGACTCA) | 2.67
CATAATACATGGACCGGTTTTCCCGGTAATCCGTATTTGGC (site CATAATACTGC) | 1.88
TGTACCCCATGGACCGGTTTTCCCGGTAATCCGTATTTGAC (site TGTACCCCTGT) | 1.52
GAGTAGGCATGGACCGGTTTTCCCGGTAATCCGTATTTGAT (site GAGTAGGCTAT) | 1.96

Sequence | recombinant UMI read abundance (log10)
GGAGTGGCATGGACCGGTTTTCCCGGTAATCCGTATTTGGT (site GGAGAGGCTAC) | 0.524
CCGCCAACATGGACCGGTTTTCCCGGTAATCCGTATTTGAG (site CCGCCAACTCT) | 0.356
CTGATCCCATGGACCGGTTTTCCCGGTAATCCGTATTTGTG (site CTGATCCCTCA) | 0.794
ATAAGGCCATGGACCGGTTTTCCCGGTAATCCGTATTTGTC (site ATAAGGCCTGG) | 2.46
TGTACTCCATGGACCGGTTTTCCCGGTAATCCGTATTTGAC (site TGTACGCCTGT) | 0
CGGGAACCATGGACCGGTTTTCCCGGTAATCCGTATTTGAT (site CGGGAACCTCT) | 0
GCTAAGTCATGGACCGGTTTTCCCGGTAATCCGTATTTGTG (site GCTAAGTCTCA) | 2.06
CGTTCATCATGGACCGGTTTTCCCGGTAATCCGTATTTGTG (site CGTTCATCTCA) | 0.00491
TCATGAGCATGGACCGGTTTTCCCGGTAATCCGTATTTGGG (site TTATGAGCTCC) | 0.00944
CCCAACACATGGACCGGTTTTCCCGGTAATCCGTATTTGTA (site CCCTACACTTA) | 0.00893
TCAGTGACATGGACCGGTTTTCCCGGTAATCCGTATTTGCG (site TCAGCGACTCG) | 0.00331
GTTGTTCCATGGACCGGTTTTCCCGGTAATCCGTATTTGGT (site GTAGTTCCTAC) | 0.00238
TATGTAACATGGACCGGTTTTCCCGGTAATCCGTATTTGCT (site AATGTAACTAG) | 0.864
GCAATATCATGGACCGGTTTTCCCGGTAATCCGTATTTGCA (site ACAGTATCTTG) | 1.37
TCAAATTCATGGACCGGTTTTCCCGGTAATCCGTATTTGCC (site TCAAATTCTGG) | 0.558
GCGAAGCCATGGACCGGTTTTCCCGGTAATCCGTATTTGGG (site GCGAAGACTCC) | 0.0597
TGCTCATCATGGACCGGTTTTCCCGGTAATCCGTATTTGCT (site TGCTCATCTAG) | 1.08
ACACGAACATGGACCGGTTTTCCCGGTAATCCGTATTTGTT (site ACACGAACTCA) | 0.359
GTAGAGGCATGGACCGGTTTTCCCGGTAATCCGTATTTGTG (site GTAGAGGCTCA) | 1.58
GCGAAACCATGGACCGGTTTTCCCGGTAATCCGTATTTGGG (site GCGAAACCTCC) | 0
CCAGAGACATGGACCGGTTTTCCCGGTAATCCGTATTTGCG (site ACAGAGACTCG) | 0.249
CTAGACTCATGGACCGGTTTTCCCGGTAATCCGTATTTGAC (site CTAGACTCTGT) | 3.29
CCCTTCACATGGACCGGTTTTCCCGGTAATCCGTATTTGGG (site CCCTTCACTCC) | 0.004
GAAGTCGCATGGACCGGTTTTCCCGGTAATCCGTATTTGGT (site GAAGTCGCTAC) | 1.34
TTGTAGACATGGACCGGTTTTCCCGGTAATCCGTATTTGCA (site TTGTAGACTTG) | 1.87

Sequence | recombinant UMI read abundance (log10)
CTCGTCTCATGGACCGGTTTTCCCGGTAATCCGTATTTGAC (site CTAGTATCTGT) | 0
TACAGTCCATGGACCGGTTTTCCCGGTAATCCGTATTTGTA (site TAAAGTCCTTA) | 0
AGAAATGCATGGACCGGTTTTCCCGGTAATCCGTATTTGCC (site AGAAATGCTGG) | 1.67
CAACATTCATGGACCGGTTTTCCCGGTAATCCGTATTTGCA (site CAACATTCTTG) | 2.5
CCAGGTCCATGGACCGGTTTTCCCGGTAATCCGTATTTGAT (site CCAGGTACTAT) | 0
ATTGAGACATGGACCGGTTTTCCCGGTAATCCGTATTTGGT (site ATTGAGACTTC) | 0.0155
CACCTTACATGGACCGGTTTTCCCGGTAATCCGTATTTGCC (site CACCTTACTGG) | 1.46
TATGGACCATGGACCGGTTTTCCCGGTAATCCGTATTTGCA (site TATGGACCTTG) | 0
TTTGCGGCATGGACCGGTTTTCCCGGTAATCCGTATTTGCT (site ATTGCGGCTAG) | 0.00696
GGCAAACCATGGACCGGTTTTCCCGGTAATCCGTATTTGAA (site GGCAACCCTTT) | 0
GACCGTCCATGGACCGGTTTTCCCGGTAATCCGTATTTGAC (site GACCGTCCTGT) | 0
CGGGACCCATGGACCGGTTTTCCCGGTAATCCGTATTTGAT (site CGGGATCCTAT) | 0
CGGCCATCATGGACCGGTTTTCCCGGTAATCCGTATTTGCT (site CGGGCATCTAG) | 0.0046
TTGCCGGCATGGACCGGTTTTCCCGGTAATCCGTATTTGGC (site TCGCCGGCTGC) | 0
ACTAGTGCATGGACCGGTTTTCCCGGTAATCCGTATTTGGA (site ACTAGTGCTAC) | 0
CCATGGTCATGGACCGGTTTTCCCGGTAATCCGTATTTGTT (site CCATGGTCTAA) | 1.06
CAATGCGCATGGACCGGTTTTCCCGGTAATCCGTATTTGAA (site CAATGCCCTTT) | 0.0173
AGGACTTCATGGACCGGTTTTCCCGGTAATCCGTATTTGAC (site AGGACTTCTGT) | 2.76
CTCTTCACATGGACCGGTTTTCCCGGTAATCCGTATTTGCT (site CTCTCCACTAG) | 1.14
CTAGGATCATGGACCGGTTTTCCCGGTAATCCGTATTTGGC (site CTAGTATCTGT) | 0.606
CAGCCTTCATGGACCGGTTTTCCCGGTAATCCGTATTTGTG (site CAGCCTTCTCA) | 0.108
CATAATACATGGACCGGTTTTCCCGGTAATCCGTATTTGGC (site CTTAATACTGC) | 0
CGCGCTCCATGGACCGGTTTTCCCGGTAATCCGTATTTGTC (site CGCGCTCCTGA) | 1.94
ATTGAGACATGGACCGGTTTTCCCGGTAATCCGTATTTGGT (site GTTGAGACTAC) | 0.235
CCTACAGCATGGACCGGTTTTCCCGGTAATCCGTATTTGAT (site CCTAAAGCTAT) | 0
